# Assays:
# TNF-α [1] = assay: TNF-α producing cells in ischemic stroke model MCAo/Rep (immunohistochemistry); assay type: in vivo, rat; details: 5 mg/kg i.p. once immediately after reperfusion; stroke hemisphere; 22 h after reperfusion; stroke control 648.3±64.70; P<0.05
# ERK = ERK activation in LPS-activated BV2 microglia (western blot, p-ERK); assay type: cell-based, mouse; details: LPS 100 ng/ml 3 h, compound 1 h before LPS
# microglia [소교세포] [2] = assay: Microglial activation in ischemic stroke model MCAo/Rep (Iba-1 immunohistochemistry); assay type: in vivo, rat; details: 5 mg/kg i.p. once immediately after reperfusion; stroke hemisphere; 22 h after reperfusion; stroke control 138.8±7.4; P<0.01
# IL-10 = IL-10 production by LPS-activated BV2 microglia (sandwich ELISA); assay type: cell-based, mouse; details: LPS 100 ng/ml, compound 1 h before LPS
# TNF-α [3] = assay: Cerebrospinal fluid TNF-α in LPS systemic inflammation mice (sandwich ELISA); assay type: in vivo, mouse; details: vs vehicle
# IL-6 = IL-6 production by LPS-activated BV2 microglia (sandwich ELISA); assay type: cell-based, mouse; details: LPS 100 ng/ml, compound 1 h before LPS
# TNF-α [4] = assay: TNF-α release from LPS-activated BV2 microglia (sandwich ELISA); assay type: cell-based, mouse; details: LPS 100 ng/ml, compound 1 h before LPS
# microglia [소교세포] [5] = assay: Microglial activation in cerebral cortex of LPS systemic inflammation mice (Iba1 immunofluorescence); assay type: in vivo, mouse; details: 3 h after LPS
# p38 = p38 activation in LPS-activated BV2 microglia (western blot, p-p38); assay type: cell-based, mouse; details: LPS 100 ng/ml 3 h, compound 1 h before LPS
# TNF-α [6] = assay: Serum TNF-α in LPS systemic inflammation mice (sandwich ELISA); assay type: in vivo, mouse; details: 3 h after LPS
# NF-κB = NF-κB DNA complex formation in LPS-activated BV2 microglia (EMSA); assay type: cell-based, mouse; details: LPS 100 ng/ml 3 h, compound 1 h before LPS
# TNF-α [7] = assay: TNF-α protein expression in cerebral cortex of LPS systemic inflammation mice (western blot); assay type: in vivo, mouse; details: 3 h after LPS, vs vehicle
# MK2 = MK2 activation in LPS-activated BV2 microglia (western blot, p-MK2); assay type: cell-based, mouse; details: LPS 100 ng/ml 3 h, compound 1 h before LPS
# nitric oxide [산화질소] = assay: Nitric oxide production by LPS-activated BV2 microglia (Griess reaction); assay type: cell-based, mouse; details: LPS 100 ng/ml, compound 1 h before LPS
# brain cells [뇌세포] = assay: Brain cell damage in ischemic stroke model MCAo/Rep (Nissl staining); assay type: in vivo, rat; details: 5 mg/kg i.p. once immediately after reperfusion; cortex and striatum; 22 h after reperfusion
# JNK = JNK activation in LPS-activated BV2 microglia (western blot, p-JNK); assay type: cell-based, mouse; details: LPS 100 ng/ml 3 h, compound 1 h before LPS
# [8] = Brain infarct volume in ischemic stroke model MCAo/Rep (TTC staining); assay type: in vivo, rat; details: 5 mg/kg i.p. once immediately after reperfusion, 22 h after reperfusion
# AP-1 = AP-1 DNA complex formation in LPS-activated BV2 microglia (EMSA); assay type: cell-based, mouse; details: LPS 100 ng/ml 3 h, compound 1 h before LPS
# [9] = system: intracellular reactive oxygen species [세포내 활성산소종 (reactive oxygen species; ROS)]; assay: Intracellular reactive oxygen species in LPS-activated BV2 microglia (H2DCF-DA fluorescence); assay type: cell-based, mouse
# [10] = Neurological score in ischemic stroke model MCAo/Rep; assay type: in vivo, rat; details: 5 mg/kg i.p. once immediately after reperfusion; vs control; P=0.0047
# IL-1β = IL-1β protein expression in cerebral cortex of LPS systemic inflammation mice (western blot); assay type: in vivo, mouse; details: 3 h after LPS, vs vehicle
structure (smiles),measurement,setting,value
"COc1ccc(S(=O)(=O)N2Cc3ccccc3C[C@@H]2C(=O)NO)cc1 [본 발명의 화합물, (3R)-(+)-[2-(4-메톡시벤젠설포닐)-1,2,3,4-테트라하이드로이소퀴놀린-3-하이드록사메이트]",number of TNF-α producing cells,TNF-α [1],402.8±74.73 cells
same,activated ERK,ERK,농도 의존적으로 감소함
same,number of activated microglia,microglia [소교세포] [2],47.67±10.73 cells
same,IL-10 production,IL-10,생성을 증가시키는 것
same,cerebrospinal fluid TNF-α level,TNF-α [3]; 1 mg/kg i.p. daily from 4 days before LPS,통계적으로 의미있는 TNF-α발현 감소
same,cerebrospinal fluid TNF-α level,TNF-α [3]; 5 mg/kg i.p. daily from 4 days before LPS,통계적으로 의미있는 TNF-α발현 감소
same,IL-6 production,IL-6,농도 의존적으로 억제됨
same,TNF-α production,TNF-α [4],현저하게 감소됨
same,number of activated microglia,"microglia [소교세포] [5]; 1 mg/kg i.p., vs vehicle",비이클 투여와 차이가 없었으나
same,number of activated Iba1-labelled cells (microglia),"microglia [소교세포] [5]; 5 mg/kg i.p., area 500 μm2, control 10.12±1.45, LPS 41.17±2.95, p<0.01 vs vehicle",20.0±3.82
same,activated p38,p38,농도 의존적으로 감소함
same,serum TNF-α level,TNF-α [6]; 5 mg/kg i.p. daily from 4 days before LPS 5 mg/kg i.p.,현저히 감소
same,serum TNF-α level,"TNF-α [6]; 1 and 5 mg/kg i.p. daily from 4 days before LPS 5 mg/kg i.p., dose dependence",용량의존적으로 TNF-α수준이 감소
same,NF-κB complex formation,NF-κB,감소됨
same,TNF-α expression in cerebral cortex,TNF-α [7]; 1 mg/kg i.p.,비이클 투여와 차이가 없었으나
same,decrease of TNF-α expression in cerebral cortex,TNF-α [7]; 5 mg/kg i.p.,40%
same,activated MK2,MK2,농도 의존적으로 감소함
same,nitric oxide production,nitric oxide [산화질소],농도 의존적으로 억제됨
same,brain cell damage by stroke,brain cells [뇌세포],극명하게 감소
same,activated JNK,JNK,농도 의존적으로 감소함
same,infarct volume (infarct volume / whole brain volume × 100),[8]; MCAo/Rep control 29.17%,18.90%
same,decrease of infarct size vs control,[8]; P=0.0452,~35.21%
same,AP-1 complex formation,AP-1,감소됨
same,intracellular reactive oxygen species,"[9]; compound at 10 μM or more, compared with control",대조군과 유사한 수준으로 감소됨
same,intracellular reactive oxygen species,[9]; concentration dependence,농도 의존적으로 억제함
same,neurological score (maximum 18),[10],유의적 감소
same,IL-1β expression in cerebral cortex,IL-1β; 1 mg/kg i.p.,비이클 투여와 차이가 없었으나
same,decrease of IL-1β expression in cerebral cortex,IL-1β; 5 mg/kg i.p.,50%
